From ChEMBL document CHEMBL5518174 (Eur J Med Chem, 2024)
Activity calls are given as the source filed them. The calls are words filed in the database; no cut-off is given here.

Assays:
[1] = Downregulation of HDAC11 protein expression in human MDA-MB-231 cells assessed as fold change at 0.05 uM incubated for 24 hrs by immunoblotting analysis (reference value: 1); format: functional
[2] = Toxicity in athymic nude BALB/c mouse xenografted with human MDA-MB-231 cells assessed as effect on AST level in serum at 3 mg/kg, ip administered 5 times a week for 7 weeks; format: organism-based; conditions: in vivo, 1176 h
[3] = Downregulation of HDAC2 protein expression in human NCI-H1975 cells assessed as fold change at 0.05 uM incubated for 24 hrs by immunoblotting analysis (reference value: 1); format: functional
[4] = Downregulation of HDAC1 protein expression in human MDA-MB-231 cells assessed as fold change at 0.1 uM incubated for 24 hrs by immunoblotting analysis (reference value: 1); format: functional
[5] = Downregulation of HDAC8 protein expression in human NCI-H1975 cells assessed as fold change at 0.1 uM incubated for 24 hrs by immunoblotting analysis (reference value: 1); format: functional
[6] = Upregulation of acetylated H4 protein expression in human NCI-H1975 cells assessed as fold change at 0.1 uM incubated for 24 hrs by immunoblotting analysis (reference value: 1); format: functional
[7] = Downregulation of HDAC7 protein expression in human NCI-H1975 cells assessed as fold change at 0.05 uM incubated for 24 hrs by immunoblotting analysis (reference value: 1); format: functional
[8] = Effect on HDAC2 protein expression in human MDA-MB-231 cells assessed as fold change at 0.05 uM incubated for 24 hrs by immunoblotting analysis (reference value: 1); format: functional
NCI-H1975 = assay: Antitumor activity against human NCI-H1975 cells xenografted in athymic nude BALB/c mouse assessed as reduction in tumor growth at 6 mg/kg, ip administered 5 times a week for 3 weeks by vernier caliper method; format: functional, organism-based
[9] = Toxicity in athymic nude BALB/c mouse xenografted with human MDA-MB-231 cells assessed as effect on ALT level in serum at 3 mg/kg, ip administered 5 times a week for 7 weeks; format: organism-based; conditions: in vivo, 1176 h
Histone deacetylase 2 = Histone deacetylase 2 (Homo sapiens, UniProt Q92769); assay: Inhibition of recombinant human HDAC2 using acetylated luminogenic substrate incubated for 10 mins by ultra-glo recombinant firefly luciferase based luminescence assay
Sequence of Histone deacetylase 2 (Q92769 whole entry): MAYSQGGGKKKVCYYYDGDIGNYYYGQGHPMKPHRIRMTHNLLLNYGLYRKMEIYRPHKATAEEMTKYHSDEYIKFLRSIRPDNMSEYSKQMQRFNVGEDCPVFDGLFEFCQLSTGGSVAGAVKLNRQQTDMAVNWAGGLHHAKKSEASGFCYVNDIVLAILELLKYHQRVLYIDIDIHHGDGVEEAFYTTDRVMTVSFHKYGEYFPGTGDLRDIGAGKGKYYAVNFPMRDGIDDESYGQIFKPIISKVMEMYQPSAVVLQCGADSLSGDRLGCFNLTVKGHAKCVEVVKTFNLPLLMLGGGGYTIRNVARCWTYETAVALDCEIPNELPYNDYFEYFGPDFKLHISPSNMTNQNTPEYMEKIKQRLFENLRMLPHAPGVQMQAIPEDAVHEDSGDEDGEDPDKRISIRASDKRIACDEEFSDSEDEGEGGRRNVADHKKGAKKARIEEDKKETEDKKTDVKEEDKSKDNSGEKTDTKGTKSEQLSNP

Histone deacetylase 9 = Histone deacetylase 9 (Homo sapiens, UniProt Q9UKV0); assay: Inhibition of recombinant human HDAC9 using acetylated luminogenic substrate incubated for 10 mins by ultra-glo recombinant firefly luciferase based luminescence assay
Sequence of Histone deacetylase 9 (Q9UKV0 whole entry): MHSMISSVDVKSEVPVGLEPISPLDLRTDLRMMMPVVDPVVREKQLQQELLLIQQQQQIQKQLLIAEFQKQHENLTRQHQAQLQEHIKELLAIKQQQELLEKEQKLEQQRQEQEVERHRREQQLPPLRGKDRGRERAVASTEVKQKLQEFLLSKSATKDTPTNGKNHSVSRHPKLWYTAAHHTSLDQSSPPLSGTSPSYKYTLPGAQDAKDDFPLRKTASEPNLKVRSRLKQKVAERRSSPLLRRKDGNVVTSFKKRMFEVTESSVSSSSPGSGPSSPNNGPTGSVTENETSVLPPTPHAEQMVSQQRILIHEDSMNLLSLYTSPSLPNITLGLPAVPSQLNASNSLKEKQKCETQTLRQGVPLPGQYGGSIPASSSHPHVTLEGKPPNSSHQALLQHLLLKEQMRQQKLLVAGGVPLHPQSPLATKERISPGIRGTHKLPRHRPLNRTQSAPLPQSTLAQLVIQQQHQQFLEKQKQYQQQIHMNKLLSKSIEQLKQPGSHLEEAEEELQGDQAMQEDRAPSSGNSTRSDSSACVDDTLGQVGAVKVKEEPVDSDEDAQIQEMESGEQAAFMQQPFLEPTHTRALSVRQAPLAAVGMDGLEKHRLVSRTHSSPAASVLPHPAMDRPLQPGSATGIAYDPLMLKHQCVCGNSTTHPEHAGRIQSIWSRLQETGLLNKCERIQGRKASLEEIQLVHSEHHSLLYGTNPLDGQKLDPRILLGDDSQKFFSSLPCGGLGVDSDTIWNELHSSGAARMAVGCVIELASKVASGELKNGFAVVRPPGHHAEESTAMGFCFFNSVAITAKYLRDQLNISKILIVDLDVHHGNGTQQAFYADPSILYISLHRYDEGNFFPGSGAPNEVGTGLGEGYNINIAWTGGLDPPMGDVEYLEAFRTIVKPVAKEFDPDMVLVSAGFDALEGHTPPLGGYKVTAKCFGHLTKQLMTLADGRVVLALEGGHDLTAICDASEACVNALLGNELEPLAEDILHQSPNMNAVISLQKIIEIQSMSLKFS

[10] = Downregulation of HDAC1 protein expression in human NCI-H1975 cells assessed as fold change at 0.1 uM incubated for 24 hrs by immunoblotting analysis (reference value: 1); format: functional
[11] = Downregulation of HDAC9 protein expression in human MDA-MB-231 cells assessed as fold change at 0.1 uM incubated for 24 hrs by immunoblotting analysis (reference value: 1); format: functional
Histone deacetylase 1 = Histone deacetylase 1 (Homo sapiens, UniProt Q13547); assay: Inhibition of recombinant human HDAC1 using acetylated luminogenic substrate incubated for 10 mins by ultra-glo recombinant firefly luciferase based luminescence assay
Sequence of Histone deacetylase 1 (Q13547 whole entry): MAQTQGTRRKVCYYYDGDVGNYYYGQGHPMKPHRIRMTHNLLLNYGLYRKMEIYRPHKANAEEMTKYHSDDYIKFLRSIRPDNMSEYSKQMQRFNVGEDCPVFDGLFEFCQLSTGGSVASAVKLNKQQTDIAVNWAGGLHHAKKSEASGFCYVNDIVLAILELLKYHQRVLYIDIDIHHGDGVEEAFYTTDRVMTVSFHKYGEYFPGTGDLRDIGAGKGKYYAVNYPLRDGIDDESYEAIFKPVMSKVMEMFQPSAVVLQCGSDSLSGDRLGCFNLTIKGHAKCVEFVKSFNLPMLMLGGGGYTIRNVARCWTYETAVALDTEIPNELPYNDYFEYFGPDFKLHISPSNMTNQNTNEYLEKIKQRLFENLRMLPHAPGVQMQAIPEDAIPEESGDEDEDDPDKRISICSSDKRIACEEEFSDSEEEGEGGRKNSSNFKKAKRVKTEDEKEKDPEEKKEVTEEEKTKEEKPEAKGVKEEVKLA

[12] = Upregulation of acetylated H4 protein expression in human MDA-MB-231 cells assessed as fold change at 0.05 uM incubated for 24 hrs by immunoblotting analysis (reference value: 1); format: functional
[13] = Downregulation of HDAC7 protein expression in human MDA-MB-231 cells assessed as fold change at 0.1 uM incubated for 24 hrs by immunoblotting analysis (reference value: 1); format: functional
[14] = Upregulation of acetylated H3 protein expression in human MDA-MB-231 cells assessed as fold change at 0.1 uM incubated for 24 hrs by immunoblotting analysis (reference value: 1); format: functional
[15] = Upregulation of acetylated H3 protein expression in human NCI-H1975 cells assessed as fold change at 0.1 uM incubated for 24 hrs by immunoblotting analysis (reference value: 1); format: functional
[16] = Downregulation of HDAC6 protein expression in human NCI-H1975 cells assessed as fold change at 0.05 uM incubated for 24 hrs by immunoblotting analysis (reference value: 1); format: functional
Histone deacetylase = assay: Inhibition of HDAC in human HeLa cells nuclear extract; format: subcellular, Nucleus

CCOc1ccc(-c2nc(C(=O)NCc3ccc(C(=O)NO)cc3)c3[nH]c(=O)n(-c4cccnc4OC)c3n2)cn1
fold change (FC) [1]: 0.53 | Activity [2]: Non-Toxic | fold change (FC) [3]: 0.77 | fold change (FC) [4]: 0.88 | fold change (FC) [5]: 0.46 | fold change (FC) [6]: 1.95 | fold change (FC) [7]: 0.94 | fold change (FC) [8]: 1.18 | Activity (NCI-H1975): Active | Activity [9]: Non-Toxic | IC50 (Histone deacetylase 2): 0.0115 µM | IC50 (Histone deacetylase 9): 0.0197 µM | fold change (FC) [10]: 0.95 | fold change (FC) [11]: 0.94 | IC50 (Histone deacetylase 1): 0.0051 µM | fold change (FC) [12]: 1.74 | fold change (FC) [13]: 0.58 | fold change (FC) [14]: 1.35 | fold change (FC) [15]: 2.19 | fold change (FC) [16]: 0.6 | IC50 (Histone deacetylase): 0.04 µM
